Counter-ions that a name gives are not always drawn. A value given as a limit tells only on which side of the number the result lay.

The subject of one assay is Human mast cells (CHMC). Briefly: LD Tryptase release assay in CHMC (mast cell activation induced by FcγR cross-linking). It is filed as cell-based. As to conditions: Homo sapiens, Mast cell, anti-IgG stimulation, activity of tryptase released upon degranulation. In short, it runs like this: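 Mast cells derived from CD38-negative progenitors were preincubated 1 h at 37 °C with compound in HEPES-buffered saline (pH 7.4, 0.1% BSA, compound diluted in buffer with 2% MeOH/1% DMSO). Cells were then stimulated 60 min with anti-human IgG (final 1 μg/mL). Released tryptase was measured on Z-Ala-Lys-Arg-AMC (30 min, room temperature, 355/460 nm) to give the IC50.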
As a reminder, the IC50 is the midpoint of a concentration-inhibition curve. Regarding `CC1(C)Oc2ccc(Nc3nc(Nc4ccc(N5CC[C@@H](O)C5)nc4)ncc3F)nc2NC1=O` [Compound 64, N4-(2,2-dimethyl-3,4-dihydro-3-oxo-2H-pyrido[3,2-b][1,4]oxazin-6-yl)-5-fluoro-N2-[6-((3R)-3-hydroxypyrrolidin-1-yl)pyridin-3-yl]-2,4-pyrimidinediamine], the IC50 was 0.1 to 0.5 µM.

As for `CCN(CC)C1CCN(c2ccc(Nc3ncc(F)c(Nc4ccc5c(n4)NC(=O)C(C)(C)O5)n3)cc2)CC1` [Compound 88, N4-(2,2-dimethyl-3,4-dihydro-3-oxo-2H-pyrido[3,2-b][1,4]oxazin-6-yl)-5-fluoro-N2-[4-(4-(diethylamino)piperidin-1-yl)phenyl]-2,4-pyrimidinediamine], the IC50 was in the range of 0.1 to 0.5 µM.

With `CC1(C)Oc2ccc(Nc3nc(Nc4ccc(N5CCC(C(N)=O)C5)nc4)ncc3F)nc2NC1=O` (stereo not shown) [Compound 70, N4-(2,2-dimethyl-3,4-dihydro-3-oxo-2H-pyrido[3,2-b][1,4]oxazin-6-yl)-5-fluoro-N2-[6-(3-(aminocarbonyl)pyrrolidin-1-yl)pyridin-3-yl]-2,4-pyrimidinediamine], the IC50 was 0.5 to 1 µM.

In the case of `COCCN(C)c1ccc(Nc2ncc(F)c(Nc3ccc4c(n3)NC(=O)CO4)n2)cn1` [Compound 98], the IC50 was 0.5 to 1 µM.

With `CC1(C)Oc2ccc(Nc3nc(Nc4ccc(N5CC(O)C5)nc4)ncc3F)nc2NC1=O` [Compound 146, N4-(2,2-dimethyl-3,4-dihydro-3-oxo-2H-pyrido[3,2-b][1,4]oxazin-6-yl)-5-fluoro-N2-[6-(3-hydroxyazetidin-1-yl)pyridin-3-yl]-2,4-pyrimidinediamine], the IC50 lay in the range of 1 to 100 µM.

Consider `O=C1COc2ccc(Nc3nc(Nc4ccc(N5CCO[C@@H](CO)C5)cc4)ncc3F)nc2N1` [Compound 127, N4-(3,4-dihydro-3-oxo-2H-pyrido[3,2-b][1,4]oxazin-6-yl)-5-fluoro-N2-[4-((2-hydroxymethyl)morpholino)phenyl]-2,4-pyrimidinediamine], for which the IC50 was below 0.1 µM.

Consider `[2H]C1([2H])OC([2H])([2H])C([2H])([2H])N(c2ccc(Nc3ncc(F)c(Nc4ccc5c(n4)NC(=O)C(C)(C)O5)n3)cc2)C1([2H])[2H]` [Compound 131, N4-(2,2-dimethyl-3,4-dihydro-3-oxo-2H-pyrido[3,2-b][1,4]oxazin-6-yl)-5-fluoro-N2-[4-(2,2,3,3,5,5,6,6-d8-morpholino)phenyl]-2,4-pyrimidinediamine], for which the 50% inhibitory concentration (IC50) was below 0.1 µM.

Consider `O=C1COc2ccc(Nc3nc(Nc4ccc5c(c4)OCC4COCCN54)ncc3F)nc2N1` (stereo not shown) [Compound 84, N4-(3,4-dihydro-3-oxo-2H-pyrido[3,2-b][1,4]oxazin-6-yl)-5-fluoro-N2-[1,2,4a,5-tetrahydro-4H-[1,4]oxazino[3,4-c][1,4]benzoxazin-8-yl]-2,4-pyrimidinediamine], for which the IC50 was in the range of 0.1 to 0.5 µM.

As for `CC1(C)Oc2ccc(Nc3nc(Nc4ccc(C5CCOCC5)nc4)ncc3F)nc2NC1=O` [Compound 22, N4-(2,2-dimethyl-3,4-dihydro-3-oxo-2H-pyrido[3,2-b][1,4]oxazin-6-yl)-5-fluoro-N2-[6-tetrahydropyranopyridin-3-yl]-2,4-pyrimidinediamine], the IC50 was in the range of 0.1 to 0.5 µM.

As to `CC(C)[C@@H]1COC(=O)N1c1ccc(Nc2ncc(F)c(Nc3ccc4c(n3)NC(=O)C(C)(C)O4)n2)cn1` [Compound 73, N4-(2,2-dimethyl-3,4-dihydro-3-oxo-2H-pyrido[3,2-b][1,4]oxazin-6-yl)-5-fluoro-N2-[6-((4R)-4-isopropyl-2-oxooxazolidin-3-yl)pyridin-3-yl]-2,4-pyrimidinediamine], the IC50 lay in the range of 0.1 to 0.5 µM.

Take `C[C@H]1CN(c2ccc(Nc3ncc(F)c(Nc4ccc5c(n4)NC(=O)C(C)(C)O5)n3)cn2)CCO1` [Compound 94, N4-(2,2-dimethyl-3,4-dihydro-3-oxo-2H-pyrido[3,2-b][1,4]oxazin-6-yl)-5-fluoro-N2-[6-((2S)-2-methylmorpholino)pyridin-3-yl]-2,4-pyrimidinediamine]: the IC50 was 0.1 to 0.5 µM.

`CC1(C)Oc2ccc(Nc3nc(Nc4ccc(N5CCC6(CCOC6)CC5)cc4)ncc3F)nc2NC1=O` [Compound 157, N4-(2,2-dimethyl-3,4-dihydro-3-oxo-2H-pyrido[3,2-b][1,4]oxazin-6-yl)-5-fluoro-N2-[4-(2-oxa-8-azaspiro[4.5]decan-8-yl)phenyl]-2,4-pyrimidinediamine]: the IC50 fell in the range of 0.1 to 0.5 µM.

As for `COC1CCN(c2ccc(Nc3ncc(F)c(Nc4ccc5c(n4)NC(=O)C(C)(C)O5)n3)cn2)C1` (stereo in doubt) [Compound 56, N4-(2,2-dimethyl-3,4-dihydro-3-oxo-2H-pyrido[3,2-b][1,4]oxazin-6-yl)-5-fluoro-N2-[6-((3R)-3-methoxypyrrolidin-1-yl)pyridin-3-yl]-2,4-pyrimidinediamine], the IC50 lay in the range of 0.1 to 0.5 µM.

On to `COCC1CCN(c2ccc(Nc3ncc(F)c(Nc4ccc5c(n4)NC(=O)C(C)(C)O5)n3)cc2)CC1` [Compound 155, N4-(2,2-dimethyl-3,4-dihydro-3-oxo-2H-pyrido[3,2-b][1,4]oxazin-6-yl)-5-fluoro-N2-[4-(4-(methoxymethyl)piperidin-1-yl)phenyl]-2,4-pyrimidinediamine], for which the concentration for half-maximal inhibition (IC50) was in the range of 0.1 to 0.5 µM.

As to `CO[C@@H]1CCN(c2ccc(Nc3ncc(F)c(Nc4ccc5c(n4)NC(=O)C(C)(C)O5)n3)cn2)C1` [Compound 65, N4-(2,2-dimethyl-3,4-dihydro-3-oxo-2H-pyrido[3,2-b][1,4]oxazin-6-yl)-5-fluoro-N2-[6-((3R)-3-methoxypyrrolidin-1-yl)pyridin-3-yl]-2,4-pyrimidinediamine], the IC50 fell in the range of 0.1 to 0.5 µM.

As to `C[C@H]1COCCN1c1ccc(Nc2ncc(F)c(Nc3ccc4c(n3)NC(=O)C(C)(C)O4)n2)cc1` [Compound 120, N4-(2,2-dimethyl-3,4-dihydro-3-oxo-2H-pyrido[3,2-b][1,4]oxazin-6-yl)-5-fluoro-N2-[4-((3S)-3-methylmorpholino)phenyl]-2,4-pyrimidinediamine], the IC50 was 0.1 to 0.5 µM.

Turning to `CC(C)Oc1cc(Nc2ncc(F)c(Nc3ccc4c(n3)NC(=O)C(C)(C)O4)n2)ccc1N1CCOCC1` [Compound 45, N4-(2,2-dimethyl-3,4-dihydro-3-oxo-2H-pyrido[3,2-b][1,4]oxazin-6-yl)-5-fluoro-N2-[3-(2-propoxy)-4-morpholinophenyl]-2,4-pyrimidinediamine], the IC50 fell in the range of 1 to 100 µM.

Still in this assay, the particulars now being: anti-IgG stimulation, activity of tryptase released upon degranulation.
As to `CC1(C)CN(c2ccc(Nc3ncc(F)c(Nc4ccc5c(n4)N(COP(=O)(O)O)C(=O)CO5)n3)cc2)CCO1` [Compound 129, N4-(3,4-dihydro-4-[(dihydrogenphosphonoxy)methyl]-3-oxo-2H-pyrido[3,2-b][1,4]oxazin-6-yl)-5-fluoro-N2-[4-(2,2-dimethylmorpholino)phenyl]-2,4-pyrimidinediamine disodium salt], the half-maximal inhibitory concentration (IC50) was 1 to 100 µM.

Consider `CC1(C)Oc2ccc(Nc3nc(Nc4ccc(N5CCOCC5)nc4)ncc3F)nc2NC1=O` [Compound 141, N4-(2,2-dimethyl-3,4-dihydro-3-oxo-2H-pyrido[3,2-b][1,4]oxazin-6-yl)-5-fluoro-N2-[6-morpholinopyridin-3-yl]-2,4-pyrimidinediamine benzenesulfonic acid salt], for which the IC50 was in the range of 0.1 to 0.5 µM.

These data come from patent US8618095B2 (Rigel Pharmaceuticals, Inc., priority 2010, dated 2013).
